Measured values taken from patent publication US9809623B2, “α4β7 peptide monomer and dimer antagonists” (Protagonist Therapeutics, Inc., priority 2014, dated 2017).
Read-outs that look alike come from different tables or passages of the source. Numbered stars: 1 amine (or outer) side, 2 acyl side, 3 side chain; on linkers, the order of the positions; unused ones are H or OH. Bridge positions count the residues as written; N and C are the ends. Square brackets hold non-standard residues; d marks the D form. Peptide text beside a SMILES is read from it. I, II: the chains in the order shown. Phe(4-CF3) = N[C@@H](Cc1ccc(C(F)(F)F)cc1)C(=O)O; Phe(4-tBu) = CC(C)(C)c1ccc(C[C@H](N)C(=O)O)cc1; Diglycolyl = O=C(COCC(=O)[*:2])[*:1]; NMeR = CN[C@@H](CCCNC(=N)N)C(=O)O; NMeK = CN[C@@H](CCCCN)C(=O)O; Pen = CC(C)(S)[C@H](N)C(=O)O

Assay: Simulated Intestinal Fluid (SIF) Stability Assay
Format: in vitro ADME, porcine
Conditions: pig, simulated intestinal fluid (SIF) with porcine pancreatin, pH 6.5, Table 3-B
Method: Studies were carried out in simulated intestinal fluid (SIF) to evaluate intestinal stability of the peptide molecules of the instant invention. To prepare the SIF reagent, blank FASSIF was prepared by dissolving 0.348 g NaOH, 3.954 g sodium phosphate monobasic monohydrate and 6.186 g NaCl in a final volume of 1 liter water (final pH=6.5). To this solution, 24 g porcine pancreatin (Sigma catalog P7545) was added and stirred for 30 minutes (final pancreatin concentration is 2.4%). The solution was filtered through a cheese cloth and a No. 1 Whatman filter, and 10 ml aliquots were stored at −70° C. To run the reaction, a 10 ml aliquot was thawed at 37° C., and 125 ul aliquots were removed and mixed with an equal volume of blank FASSIF. The peptide stock solution (10 mM in 100% DMSO) was diluted 75-fold in blank FASSIF. A 50 μl aliquot of the diluted peptide was combined with 125 μl pancreatin (2.4%) and 125 μl blank FASSIF to yield final concentrations of 1% pancreatin and 22 μM peptide. The reactions were incubated at 37° C., and at various time points 50 μl aliquots were removed and added to 200 μl of quench solution containing 50% acetonitrile, 50% methanol, 5% formic acid, and 1 μg/ml internal standard. The quenched samples were centrifuged at 10,000 rpm for 10 minutes, and the supernatants were analyzed by LCMS/MS. The percent remaining at each time point was calculated based on the peak area response ratio of test to compound to internal standard. Half-lives were calculated by fitting to a first-order exponential decay equation using GraphPad.

[1] = > means experiment was stopped at that time and half life was not reached, read-out: Stabilty SIF t1/2
[2] = alone or in parentheses after >360, read-out: Stabilty SIF t1/2, in hr (converted)

Row | SMILES | half-life at 22 μM [1] [h] | half-life at 22 μM [2] [h] | half-life at 22 μM (in parentheses after >180, read-out: Stabilty SIF t1/2, value in parentheses) [h]
1 | CC(=O)N[C@@H]1C(=O)N(C)[C@@H](CCCNC(=N)N)C(=O)N[C@@H](CO)C(=O)N[C@@H](CC(=O)O)C(=O)N[C@@H]([C@@H](C)O)C(=O)N[C@@H](CC(C)C)C(=O)N[C@H](C(=O)N[C@@H](Cc2ccc(C(C)(C)C)cc2)C(=O)N[C@@H](CCC(=O)O)CC(=O)N[C@H](CCCCNC(=O)CN(CC(=O)NCCCC[C@@H](NC(=O)C[C@H](CCC(=O)O)NC(=O)[C@H](Cc2ccc(C(C)(C)C)cc2)NC(=O)[C@H]2NC(=O)[C@H](CC(C)C)NC(=O)[C@H]([C@@H](C)O)NC(=O)[C@H](CC(=O)O)NC(=O)[C@H](CO)NC(=O)[C@H](CCCNC(=N)N)N(C)C(=O)[C@@H](NC(C)=O)C(C)(C)SSC2(C)C)C(N)=O)C(=O)CCNC(=O)CCCCCC2(C)C(=CC=CC=CC3=[N+](CCCS(=O)(=O)[O-])c4ccc(S(=O)(=O)O)cc4C3(C)C)N(CCCS(=O)(=O)O)c3ccc(S(=O)(=O)O)cc32)C(N)=O)C(C)(C)SSC1(C)C (single isomer, unassigned) [compound 183] | > 3 | – | 7.77
2 | CC(=O)N[C@@H]1C(=O)N(C)[C@@H](CCCNC(=N)N)C(=O)N[C@@H](CO)C(=O)N[C@@H](CC(=O)O)C(=O)N[C@@H]([C@@H](C)O)C(=O)N[C@@H](CC(C)C)C(=O)N[C@H](C(=O)N[C@@H](Cc2ccc(C(F)(F)F)cc2)C(=O)N[C@H](CCC(=O)O)C(=O)N[C@H](CCCCNC(=O)COCC(=O)NCCCC[C@@H](NC(=O)[C@@H](CCC(=O)O)NC(=O)[C@H](Cc2ccc(C(F)(F)F)cc2)NC(=O)[C@H]2NC(=O)[C@H](CC(C)C)NC(=O)[C@H]([C@@H](C)O)NC(=O)[C@H](CC(=O)O)NC(=O)[C@H](CO)NC(=O)[C@H](CCCNC(=N)N)N(C)C(=O)[C@@H](NC(C)=O)C(C)(C)SSC2(C)C)C(N)=O)C(N)=O)C(C)(C)SSC1(C)C [compound 3] (I: Ac-[Pen][NMeR]SDTL[Pen][Phe(4-CF3)][dE][dK]-NH2 / II: Ac-[Pen][NMeR]SDTL[Pen][Phe(4-CF3)][dE][dK]-NH2; disulfide I:1-I:7, II:1-II:7; linker I:10-II:10 via Diglycolyl) | > 3 | – | –
3 | CC(=O)N[C@@H]1C(=O)N(C)[C@@H](CCCNC(=N)N)C(=O)N[C@@H](CO)C(=O)N[C@@H](CC(=O)O)C(=O)N[C@@H]([C@@H](C)O)C(=O)N[C@@H](CC(C)C)C(=O)N[C@H](C(=O)N[C@@H](Cc2ccc(C(C)(C)C)cc2)C(=O)N[C@@H](CCC(=O)O)C(=O)N[C@H](CCCCNC(=O)COCC(=O)NCCCC[C@@H](NC(=O)[C@H](CCC(=O)O)NC(=O)[C@H](Cc2ccc(C(C)(C)C)cc2)NC(=O)[C@H]2NC(=O)[C@H](CC(C)C)NC(=O)[C@H]([C@@H](C)O)NC(=O)[C@H](CC(=O)O)NC(=O)[C@H](CO)NC(=O)[C@H](CCCNC(=N)N)N(C)C(=O)[C@@H](NC(C)=O)C(C)(C)SSC2(C)C)C(N)=O)C(N)=O)C(C)(C)SSC1(C)C [compound 131] (I: Ac-[Pen][NMeR]SDTL[Pen][Phe(4-tBu)]E[dK]-NH2 / II: Ac-[Pen][NMeR]SDTL[Pen][Phe(4-tBu)]E[dK]-NH2; disulfide I:1-I:7, II:1-II:7; linker I:10-II:10 via Diglycolyl) | > 6 | 9 | –
4 | CC(=O)N[C@@H]1C(=O)N(C)[C@@H](CCCNC(=N)N)C(=O)N[C@@H](CO)C(=O)N[C@@H](CC(=O)O)C(=O)N[C@@H]([C@@H](C)O)C(=O)N[C@@H](CC(C)C)C(=O)N[C@H](C(=O)N[C@@H](Cc2ccc(C(C)(C)C)cc2)C(=O)N[C@@H](CCC(=O)O)CC(=O)N[C@H](CCCCNC(=O)CN(CC(=O)NCCCC[C@@H](NC(=O)C[C@H](CCC(=O)O)NC(=O)[C@H](Cc2ccc(C(C)(C)C)cc2)NC(=O)[C@H]2NC(=O)[C@H](CC(C)C)NC(=O)[C@H]([C@@H](C)O)NC(=O)[C@H](CC(=O)O)NC(=O)[C@H](CO)NC(=O)[C@H](CCCNC(=N)N)N(C)C(=O)[C@@H](NC(C)=O)C(C)(C)SSC2(C)C)C(N)=O)C(=O)CCNC(=O)c2ccc(-c3c4ccc(=N)c(S(=O)(=O)O)c-4oc4c(S(=O)(=O)O)c(N)ccc34)c(C(=O)O)c2)C(N)=O)C(C)(C)SSC1(C)C [compound 182] | > 3 | – | –

Second part, led by results:

Row | half-life at 22 μM [1] [h] | half-life at 22 μM [2] [h] | SMILES | half-life at 22 μM (in parentheses after >180, read-out: Stabilty SIF t1/2, value in parentheses) [h]
5 | 0.1 | – | CC(=O)N[C@@H]1CCCCNC(=O)COCC(=O)NCCCC[C@@H](NC(C)=O)C(=O)N[C@H]2CSSC[C@H](NC(=O)[C@H](CC(C)C)NC(=O)[C@H]([C@@H](C)O)NC(=O)[C@H](CC(=O)O)NC(=O)[C@H](CO)NC(=O)[C@H](CCCNC(=N)N)N(C)C2=O)C(=O)N[C@@H](Cc2c[nH]c3ccccc23)C(=O)N[C@@H](C(N)=O)CCCCNC(=O)COCC(=O)NCCCC[C@H](C(N)=O)NC(=O)[C@H](Cc2c[nH]c3ccccc23)NC(=O)[C@@H]2CSSC[C@H](NC1=O)C(=O)N(C)[C@@H](CCCNC(=N)N)C(=O)N[C@@H](CO)C(=O)N[C@@H](CC(=O)O)C(=O)N[C@@H]([C@@H](C)O)C(=O)N[C@@H](CC(C)C)C(=O)N2 [compound 5] (I: Ac-[dK]C[NMeR]SDTLCW[dK]-NH2 / II: Ac-[dK]C[NMeR]SDTLCW[dK]-NH2; linker I:1-II:1, I:10-II:10 via Diglycolyl; disulfide I:2-I:8, II:2-II:8) | –
6 | > 6 | 11 | CC(=O)N[C@@H]1C(=O)N(C)[C@@H](CCCNC(=N)N)C(=O)N[C@@H](CO)C(=O)N[C@@H](CC(=O)O)C(=O)N[C@@H]([C@@H](C)O)C(=O)N[C@@H](CC(C)C)C(=O)N[C@H](C(=O)N[C@@H](Cc2ccc(C(C)(C)C)cc2)C(=O)N[C@@H](CCC(=O)O)C(=O)N(C)[C@@H](CCCCNC(=O)COCC(=O)NCCCC[C@@H](C(N)=O)N(C)C(=O)[C@H](CCC(=O)O)NC(=O)[C@H](Cc2ccc(C(C)(C)C)cc2)NC(=O)[C@H]2NC(=O)[C@H](CC(C)C)NC(=O)[C@H]([C@@H](C)O)NC(=O)[C@H](CC(=O)O)NC(=O)[C@H](CO)NC(=O)[C@H](CCCNC(=N)N)N(C)C(=O)[C@@H](NC(C)=O)C(C)(C)SSC2(C)C)C(N)=O)C(C)(C)SSC1(C)C [compound 133] (I: Ac-[Pen][NMeR]SDTL[Pen][Phe(4-tBu)]E[NMeK]-NH2 / II: Ac-[Pen][NMeR]SDTL[Pen][Phe(4-tBu)]E[NMeK]-NH2; disulfide I:1-I:7, II:1-II:7; linker I:10-II:10 via Diglycolyl) | –
